Data published in patent US20250092017A1, “2-PIPERIDYL OR 2-PYRAZOLYL SUBSTITUTED PYRIMIDINE COMPOUND SERVING AS EGFR INHIBITOR” (SUZHOU PUHE BIOPHARMA CO., LTD., priority 2022, published 2025).

Experiments:
[1] = target: Ba/F3-FL-EGFR-L858R (Homo sapiens, UniProt P00533, L858R, cells depend on it); assay: CellTiter-Glo proliferation, Ba/F3-FL-EGFR-L858R; assay type: cell-based; conditions: 72 hours, read-out: Ba/F3-FL-EGFR-L858R IC50/nM
Outline: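 Ba/F3 lines dependent on the indicated EGFR variants were treated with compounds at a final DMSO concentration of 0.1% at 37 °C, 5% CO2. Viability was read by CellTiter-Glo luminescence, and inhibition rate was normalised to DMSO-treated cells (max) and medium-only wells (min). IC50 came from inhibition curves.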

[2] = Liver microsome stability test, human; assay type: in vitro ADME; conditions: human liver microsomes 0.5 mg/ml, compound 1 μM, NADPH 1 mM, within 60 minutes
Experimental: (§1) The compounds of the present disclosure were subjected to a liver microsome stability test. The compounds to be tested were co-incubated with liver microsomes of different species with or without the addition of NADPH. The final concentration of the compounds to be tested in the test system was 1 μM. The final concentration of NADPH was 1 mM, and the final concentration of liver microsomes was 0.5 mg/ml.

[3] = Liver microsome stability test, mouse; assay type: in vitro ADME; conditions: mouse liver microsomes 0.5 mg/ml, compound 1 μM, NADPH 1 mM, within 60 minutes
Experimental: as §1

[4] = target: Ba/F3-FL-EGFR-del19-T790M-C797S (Homo sapiens, UniProt P00533, DEL746-750/T790M/C797S, cells depend on it); assay: CellTiter-Glo proliferation, Ba/F3-FL-EGFR-del19-T790M-C797S; assay type: cell-based; conditions: 72 hours, read-out: Ba/F3-FL-EGFR-del19-T790M-C797S IC50/nM
Chain of Ba/F3-FL-EGFR-del19-T790M-C797S (P00533 with tags, fused parts or gaps DEL746-750/T790M/C797S): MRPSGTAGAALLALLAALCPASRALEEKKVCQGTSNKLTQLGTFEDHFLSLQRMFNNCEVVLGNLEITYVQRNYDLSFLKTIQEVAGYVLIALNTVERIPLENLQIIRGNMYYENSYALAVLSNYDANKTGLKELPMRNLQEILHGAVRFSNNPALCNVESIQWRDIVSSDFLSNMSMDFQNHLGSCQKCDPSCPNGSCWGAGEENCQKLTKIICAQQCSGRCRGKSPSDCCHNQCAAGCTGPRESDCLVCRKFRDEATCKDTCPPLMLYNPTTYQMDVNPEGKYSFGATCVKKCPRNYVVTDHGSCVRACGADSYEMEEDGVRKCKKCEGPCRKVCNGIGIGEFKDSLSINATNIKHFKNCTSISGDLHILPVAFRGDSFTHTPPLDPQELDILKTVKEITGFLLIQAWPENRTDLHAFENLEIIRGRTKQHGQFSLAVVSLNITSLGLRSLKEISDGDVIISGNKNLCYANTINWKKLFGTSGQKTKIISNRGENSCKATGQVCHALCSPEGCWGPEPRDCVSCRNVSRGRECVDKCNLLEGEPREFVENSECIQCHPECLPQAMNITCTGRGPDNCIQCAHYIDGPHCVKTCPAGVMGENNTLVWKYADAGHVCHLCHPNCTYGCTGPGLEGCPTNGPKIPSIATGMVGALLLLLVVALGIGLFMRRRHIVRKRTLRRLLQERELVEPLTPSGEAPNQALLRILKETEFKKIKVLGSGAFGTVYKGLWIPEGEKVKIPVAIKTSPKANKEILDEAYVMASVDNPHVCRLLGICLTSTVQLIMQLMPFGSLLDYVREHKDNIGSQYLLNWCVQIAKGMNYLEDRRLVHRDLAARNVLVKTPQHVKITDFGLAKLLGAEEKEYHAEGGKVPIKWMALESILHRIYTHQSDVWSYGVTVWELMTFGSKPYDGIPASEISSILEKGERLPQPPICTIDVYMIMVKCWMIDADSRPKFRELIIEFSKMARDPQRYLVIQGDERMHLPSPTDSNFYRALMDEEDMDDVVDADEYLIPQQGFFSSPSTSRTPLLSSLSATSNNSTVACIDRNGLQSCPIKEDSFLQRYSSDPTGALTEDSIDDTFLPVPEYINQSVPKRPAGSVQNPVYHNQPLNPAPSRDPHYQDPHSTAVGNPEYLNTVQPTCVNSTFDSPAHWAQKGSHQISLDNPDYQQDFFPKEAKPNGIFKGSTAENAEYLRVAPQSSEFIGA
Experimental: Promega CellTiter-Glo reagent was used to detect the effects of small molecule inhibitors on the proliferation of three Ba/F3 cell lines (Ba/F3-FL-EGFR-de119, Ba/F3-FL-EGFR-de119-T790M, Ba/F3-FL-EGFR-de119-T790M-C797S).
The cell lines were cultured in an incubator at 37° C. and 5% CO2. Cells were passaged regularly and cells in the logarithmic phase were used for plating. 95 μL of cell suspension was added to each well of the cell plate, and culture medium without cells (containing 0.1% DMSO) was added to the Min control wells. Substance addition for compound detection cell plate: 5 μL of 20× compound working solution was added to the cell culture plate. 5 μL of DMSO-cell culture medium mixture was added to the Max control, with the final DMSO concentration of 0.1%. 5 μL of DMSO-cell culture medium mixture was added to the Max control. The final DMSO concentration was 0.1%.
Cell viability was detected by CellTiter-Glo luminescence assay. Data analysis:
The cell proliferation inhibition rate (Inhibition Rate) data was processed using the following formula: […]
wherein: RLUDrug represents the relative luminescence unit of the cells with the addition of drug, RLUMin represents the luminescence unit of the culture medium, and RLUMax represents the relative luminescence unit of the cells with the addition of DMSO.
The inhibition rates corresponding to different concentrations of compounds were calculated in EXCEL, and then the inhibition rate curve was plotted using GraphPad Prism software and related parameters including the maximum and minimum inhibition rates of cells and IC50 values were calculated.

[5] = target: EGFR (L858R/C797S) (Homo sapiens, UniProt P00533, C797S/L858R); assay: MSA (Mobility Shift Assay) kinase activity, EGFR-L858R-C797S; assay type: biochemical
Chain of EGFR (L858R/C797S) (P00533 25-1210 C797S/L858R): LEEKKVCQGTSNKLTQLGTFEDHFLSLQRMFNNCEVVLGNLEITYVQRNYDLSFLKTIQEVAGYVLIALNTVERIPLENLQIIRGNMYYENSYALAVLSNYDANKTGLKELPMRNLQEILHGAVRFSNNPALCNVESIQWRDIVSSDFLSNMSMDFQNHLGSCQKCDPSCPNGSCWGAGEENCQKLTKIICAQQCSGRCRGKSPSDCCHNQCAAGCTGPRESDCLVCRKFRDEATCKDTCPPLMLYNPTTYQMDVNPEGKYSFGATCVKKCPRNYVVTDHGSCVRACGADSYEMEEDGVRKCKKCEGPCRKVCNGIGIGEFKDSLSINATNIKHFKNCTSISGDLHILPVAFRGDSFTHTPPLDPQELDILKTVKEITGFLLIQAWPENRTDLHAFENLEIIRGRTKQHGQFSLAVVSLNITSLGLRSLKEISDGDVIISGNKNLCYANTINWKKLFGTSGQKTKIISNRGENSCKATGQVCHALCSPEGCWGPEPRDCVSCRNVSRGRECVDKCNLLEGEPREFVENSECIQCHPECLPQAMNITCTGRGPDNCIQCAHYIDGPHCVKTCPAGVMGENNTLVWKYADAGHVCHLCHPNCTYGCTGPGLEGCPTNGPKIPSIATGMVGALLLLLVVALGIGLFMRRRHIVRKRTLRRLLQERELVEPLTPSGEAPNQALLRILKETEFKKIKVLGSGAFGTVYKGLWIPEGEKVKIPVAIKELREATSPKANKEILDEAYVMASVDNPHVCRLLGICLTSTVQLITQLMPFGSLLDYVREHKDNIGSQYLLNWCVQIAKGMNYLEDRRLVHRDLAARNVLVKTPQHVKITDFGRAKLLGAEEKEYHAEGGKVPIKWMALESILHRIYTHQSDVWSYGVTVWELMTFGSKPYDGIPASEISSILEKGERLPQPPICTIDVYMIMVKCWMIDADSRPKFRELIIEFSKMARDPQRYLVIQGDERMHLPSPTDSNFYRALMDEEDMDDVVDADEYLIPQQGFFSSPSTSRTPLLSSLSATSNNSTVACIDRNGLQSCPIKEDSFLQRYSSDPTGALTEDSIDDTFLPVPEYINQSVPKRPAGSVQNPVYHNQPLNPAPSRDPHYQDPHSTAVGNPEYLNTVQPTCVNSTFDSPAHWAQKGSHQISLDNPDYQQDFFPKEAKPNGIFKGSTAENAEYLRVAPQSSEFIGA
Outline: (§2)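 Kinase preincubated with compound 10 min at room temperature, then reaction started with ATP plus substrate in 1x kinase buffer and run at room temperature. Substrate-to-product conversion read by mobility shift; % inhibition normalised to no-enzyme and no-compound controls, IC50 from variable-slope four-parameter fit.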

[6] = target: EGFR (L858R/T790M/C797S) (Homo sapiens, UniProt P00533, C797S/L858R/T790M); assay: MSA (Mobility Shift Assay) kinase activity, EGFR-L858R-T790M-C797S; assay type: biochemical
Chain of EGFR (L858R/T790M/C797S) (P00533 25-1210 T790M/C797S/L858R): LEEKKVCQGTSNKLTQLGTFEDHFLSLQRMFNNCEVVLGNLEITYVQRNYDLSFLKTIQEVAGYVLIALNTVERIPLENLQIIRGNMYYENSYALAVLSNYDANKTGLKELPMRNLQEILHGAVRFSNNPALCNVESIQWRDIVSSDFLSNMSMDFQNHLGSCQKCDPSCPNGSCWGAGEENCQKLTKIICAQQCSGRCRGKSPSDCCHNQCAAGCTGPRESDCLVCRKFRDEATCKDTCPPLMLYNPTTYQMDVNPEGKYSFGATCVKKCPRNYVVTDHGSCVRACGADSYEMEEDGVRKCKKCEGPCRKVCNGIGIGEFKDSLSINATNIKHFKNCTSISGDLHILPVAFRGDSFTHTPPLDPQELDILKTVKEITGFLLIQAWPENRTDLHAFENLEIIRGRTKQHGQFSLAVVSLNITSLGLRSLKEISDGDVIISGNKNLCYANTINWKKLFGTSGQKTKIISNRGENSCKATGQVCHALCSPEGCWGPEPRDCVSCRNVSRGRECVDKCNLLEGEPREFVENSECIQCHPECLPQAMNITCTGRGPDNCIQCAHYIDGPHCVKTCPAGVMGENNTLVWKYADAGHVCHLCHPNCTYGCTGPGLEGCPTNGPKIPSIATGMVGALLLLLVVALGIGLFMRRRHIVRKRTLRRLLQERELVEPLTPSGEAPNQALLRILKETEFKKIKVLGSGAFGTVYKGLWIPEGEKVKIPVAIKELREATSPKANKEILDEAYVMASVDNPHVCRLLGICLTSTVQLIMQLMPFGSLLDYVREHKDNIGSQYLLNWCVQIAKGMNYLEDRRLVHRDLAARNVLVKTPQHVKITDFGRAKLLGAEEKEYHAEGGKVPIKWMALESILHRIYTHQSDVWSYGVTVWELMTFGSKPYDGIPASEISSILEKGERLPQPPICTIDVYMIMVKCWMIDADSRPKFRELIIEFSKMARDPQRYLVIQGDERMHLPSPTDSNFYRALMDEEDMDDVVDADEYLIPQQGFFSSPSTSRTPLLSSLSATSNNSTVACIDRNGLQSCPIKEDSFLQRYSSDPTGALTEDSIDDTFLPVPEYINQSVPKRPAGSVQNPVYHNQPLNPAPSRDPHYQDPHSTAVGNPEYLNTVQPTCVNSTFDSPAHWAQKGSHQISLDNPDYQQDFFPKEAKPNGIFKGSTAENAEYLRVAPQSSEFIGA
Outline: as §2

Chain of Ba/F3-FL-EGFR-L858R (P00533 whole entry L858R): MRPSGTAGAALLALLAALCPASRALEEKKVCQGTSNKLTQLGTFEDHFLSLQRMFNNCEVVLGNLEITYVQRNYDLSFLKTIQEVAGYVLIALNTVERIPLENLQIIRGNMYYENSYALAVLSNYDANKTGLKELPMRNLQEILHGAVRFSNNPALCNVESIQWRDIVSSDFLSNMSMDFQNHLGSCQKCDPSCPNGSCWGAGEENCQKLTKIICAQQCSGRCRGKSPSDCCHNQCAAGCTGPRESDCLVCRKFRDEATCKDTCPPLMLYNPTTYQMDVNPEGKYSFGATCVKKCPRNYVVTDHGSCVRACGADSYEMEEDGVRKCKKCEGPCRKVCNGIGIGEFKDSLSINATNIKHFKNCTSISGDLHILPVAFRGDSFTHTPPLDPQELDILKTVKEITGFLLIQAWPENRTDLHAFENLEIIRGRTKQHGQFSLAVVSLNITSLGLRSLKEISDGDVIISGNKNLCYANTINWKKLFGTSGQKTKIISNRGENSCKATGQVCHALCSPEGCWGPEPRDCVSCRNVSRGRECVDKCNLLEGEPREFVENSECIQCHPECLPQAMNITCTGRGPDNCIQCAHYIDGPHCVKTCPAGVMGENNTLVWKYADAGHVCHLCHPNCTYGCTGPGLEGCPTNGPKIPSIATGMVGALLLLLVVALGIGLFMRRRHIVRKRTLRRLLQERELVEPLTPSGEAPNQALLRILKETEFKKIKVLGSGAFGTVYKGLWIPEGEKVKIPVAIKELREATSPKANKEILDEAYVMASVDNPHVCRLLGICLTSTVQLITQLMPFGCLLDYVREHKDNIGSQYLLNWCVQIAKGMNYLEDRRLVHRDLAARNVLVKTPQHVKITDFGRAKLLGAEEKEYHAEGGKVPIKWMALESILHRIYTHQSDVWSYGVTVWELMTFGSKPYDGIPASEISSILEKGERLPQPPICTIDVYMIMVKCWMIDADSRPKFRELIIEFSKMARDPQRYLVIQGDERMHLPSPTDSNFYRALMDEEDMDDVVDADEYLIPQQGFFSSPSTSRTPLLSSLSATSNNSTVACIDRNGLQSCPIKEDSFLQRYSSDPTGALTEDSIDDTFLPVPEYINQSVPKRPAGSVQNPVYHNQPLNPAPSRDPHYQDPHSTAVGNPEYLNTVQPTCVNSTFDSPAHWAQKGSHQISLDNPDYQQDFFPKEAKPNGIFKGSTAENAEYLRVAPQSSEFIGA

GI50 [1] [nM] | CLint scaled at 1 μM [2] [mL/min/kg] | CLint scaled at 1 μM [3] [mL/min/kg] | GI50 [4] [nM] | IC50 [5] [nM] | IC50 [6] [nM] | Structure (SMILES)
18 | < 8.6 | 231 | 8.4 | 2 | 0.05 | CC(C)c1ccc(N2CC(N(C)S(C)(=O)=O)C2)c2cnc(Nc3ccnc(N4CC[C@@H](O)[C@@H](F)C4)n3)cc12 [Compound P39a]
7.7 | 14.2 | 196 | 7.8 | 0.6 | 0.43 | CC(C)c1ccc(N2C[C@H](CS(C)(=O)=O)[C@H]2C)c2cnc(Nc3ccnc(-c4cnn(S(=O)(=O)C5CC5)c4)n3)cc12 [Compound H12]
